The values below come from ChEMBL document CHEMBL1201862, “PubChem BioAssay data set” (2004).

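Compound exposure: 48 hours, 5 concentrations, 96-well plates. GI50 = concentration required for 50% inhibition of growth.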 Calls of active or inactive are those of the source. Cut-off read from the data, not from the text of the source: active = GI50 up to about 1.1 µM and inactive = higher. Some results are limits rather than exact numbers.

Among the test systems are DU-145; SN12C; SK-MEL-5; PC-3; HOP-62; OVCAR-5; MDA-N; RXF 393; OVCAR-3; OVCAR-8; HCT-15; BT-549; NCI-H23; TK-10; T47D; HT-29; DLD-1; M19-MEL; LXFL 529.
Common to all, as to assay: DTP human tumour cell line panel, 48 h

As usually defined, the GI50 is the concentration that inhibits growth by half. With `CCOC(=O)c1sc2nc(SC)nc(N3CCCCC3)c2c1N`, the GI50 in the assay on DU-145, in the assay with SN12C, in the assay with SK-MEL-5, in the assay with PC-3, in the assay on HOP-62 and in the assay on OVCAR-5 was > 100 µM (inactive) each time. The GI50 was > 100 µM (inactive) in the assay with MDA-N; > 100 µM (inactive) in the assay on RXF 393; > 100 µM (inactive) in the assay on OVCAR-3; > 100 µM (inactive) with OVCAR-8; above 100 µM with HCT-15; > 100 µM (inactive) in the assay on BT-549. The GI50 in the assay on NCI-H23, with TK-10, with T47D and in the assay with HT-29 was > 100 µM (inactive) in each case.

Turning to `Cc1cc(C)nc(NS(=O)(=O)c2ccc(NC(=O)c3cccc4c(Nc5ccc(S(=O)(=O)Nc6cc(C)on6)cc5)c5ccccc5nc34)cc2)n1`, the GI50 is 30.1 µM (inactive) in the assay with DLD-1; 23 µM (inactive) with SN12C; 26 µM (inactive) in the assay with M19-MEL; 19.1 µM (inactive) in the assay on HOP-62; 16.7 µM (inactive) in the assay on OVCAR-5; 16.1 µM (inactive) in the assay with LXFL 529. Moreover, the GI50 with RXF 393 is 20.1 µM (inactive); in the assay with OVCAR-3, 19.9 µM (inactive); in the assay with NCI-H23, 18.3 µM (inactive); in the assay on TK-10, 34.4 µM (inactive); in the assay on HT-29, 22.2 µM (inactive).

As for `CC(C)C1=C(O)C(=O)C2=C(C1=O)C(OC=O)C(O)C1C(C)(C)CCCC21C` (centres undefined), the GI50 is 5.06 µM (inactive) with DU-145; 10.1 µM (inactive) with SN12C; 3.7 µM (inactive) in the assay with SK-MEL-5; 11.2 µM (inactive) with PC-3; 37.6 µM (inactive) in the assay with HOP-62; 15.8 µM (inactive) in the assay on OVCAR-5. Moreover, the GI50 is 7.31 µM (inactive) in the assay with MDA-N; 6.82 µM (inactive) in the assay on RXF 393; 12.1 µM (inactive) with OVCAR-3; 7.29 µM (inactive) in the assay on OVCAR-8; 4.04 µM in the assay with HCT-15; 8.36 µM (inactive) in the assay with BT-549. In addition, the GI50 was 7 µM (inactive) in the assay with NCI-H23, 13.4 µM (inactive) with TK-10, 8.24 µM (inactive) in the assay with T47D and 11.2 µM (inactive) with HT-29.

In the case of `Cc1c(OC(C)C(=O)O)ccc2c(-c3ccccc3)cc(=O)oc12` (centres undefined), the GI50 with DLD-1, with SN12C, with SK-MEL-5, in the assay with M19-MEL, in the assay with HOP-62 and in the assay with LXFL 529 was > 100 µM (inactive) each time. Moreover, the GI50 with RXF 393, with OVCAR-3, in the assay with OVCAR-8, in the assay with NCI-H23, with TK-10 and in the assay with HT-29 was > 100 µM (inactive) in each case.

For the molecule `COC(=O)C12C3C4C1C1C2C3C41C(=O)O` (centres undefined), the GI50 with DLD-1, in the assay with SN12C, in the assay on SK-MEL-5, in the assay with M19-MEL, in the assay on HOP-62 and in the assay with OVCAR-5 was > 100 µM (inactive) each time. Further, the GI50 with LXFL 529 was > 100 µM (inactive); in the assay with RXF 393 it was > 100 µM (inactive); in the assay on OVCAR-3 it was > 100 µM (inactive); with OVCAR-8 it was > 100 µM (inactive); in the assay with HCT-15, above 100 µM; in the assay on NCI-H23 it was > 100 µM (inactive). The GI50 in the assay on TK-10 and in the assay on HT-29 was > 100 µM (inactive) each time.

On to `COc1nc(N=P(c2ccccc2)(c2ccccc2)c2ccccc2)cc(=O)n1C`, for which the GI50 in the assay with DU-145, in the assay on SN12C, with SK-MEL-5, in the assay with PC-3, in the assay with HOP-62 and in the assay on OVCAR-5 was > 100 µM (inactive) throughout. The GI50 is > 100 µM (inactive) in the assay with MDA-N; > 100 µM (inactive) with RXF 393; > 100 µM (inactive) in the assay on OVCAR-3; > 100 µM (inactive) with OVCAR-8; above 100 µM in the assay on HCT-15; > 100 µM (inactive) with BT-549. In addition, the GI50 with NCI-H23, in the assay with TK-10, in the assay with T47D and in the assay on HT-29 was > 100 µM (inactive) each time.

Regarding `CC(C)C(=O)Cc1ccc2ccccc2n1`, the GI50 with DU-145 is > 100 µM (inactive); with SN12C, > 100 µM (inactive); in the assay on SK-MEL-5, > 100 µM (inactive); in the assay with PC-3 it was 89.7 µM (inactive); in the assay with HOP-62, > 100 µM (inactive); in the assay with OVCAR-5 it was > 100 µM (inactive). The GI50 was 55.2 µM (inactive) in the assay on MDA-N; > 100 µM (inactive) in the assay on RXF 393; > 100 µM (inactive) in the assay on OVCAR-3; > 100 µM (inactive) in the assay with OVCAR-8; above 100 µM with HCT-15; > 100 µM (inactive) in the assay with BT-549. Besides, the GI50 in the assay with NCI-H23, in the assay with TK-10, in the assay on T47D and in the assay on HT-29 was > 100 µM (inactive) each time.

As for `Nc1nc(O)c2[nH]cnc2[n+]1[O-]`, the GI50 in the assay on DU-145 was > 100 µM (inactive); in the assay with SN12C it was 40.5 µM (inactive); in the assay on SK-MEL-5, > 100 µM (inactive); in the assay on PC-3 it was > 100 µM (inactive); in the assay with HOP-62 it was > 100 µM (inactive); with OVCAR-5, > 100 µM (inactive). Moreover, the GI50 in the assay on MDA-N is > 100 µM (inactive); with RXF 393, > 100 µM (inactive); with OVCAR-3, > 100 µM (inactive); in the assay with OVCAR-8, > 100 µM (inactive); in the assay with HCT-15, above 100 µM; in the assay on BT-549 it was > 100 µM (inactive). For the same molecule, the GI50 with NCI-H23 is > 100 µM (inactive); with TK-10 it was 53.3 µM (inactive); in the assay with T47D, > 100 µM (inactive); in the assay on HT-29 it was > 100 µM (inactive).

Regarding `O=c1c2cc(I)ccc2nc(-c2cccs2)n1O`, the GI50 in the assay on DU-145 is 27.7 µM (inactive); in the assay on SN12C it was 45 µM (inactive); with SK-MEL-5, 45.1 µM (inactive); in the assay with PC-3 it was 52.1 µM (inactive); with HOP-62, 48.9 µM (inactive); in the assay on OVCAR-5, 44.8 µM (inactive). Also, the GI50 was 51.2 µM (inactive) with MDA-N; > 100 µM (inactive) in the assay with RXF 393; 15.6 µM (inactive) with OVCAR-3; 38.1 µM (inactive) in the assay with OVCAR-8; 33.9 µM in the assay with HCT-15; 33.2 µM (inactive) in the assay with BT-549. The GI50 in the assay with NCI-H23 is 24.2 µM (inactive); in the assay on TK-10, 24.6 µM (inactive); in the assay on T47D, 26.2 µM (inactive); with HT-29, 48.6 µM (inactive).

Turning to `Brc1cc(CCOC2CCCCO2)c(-c2sccc2CCOC2CCCCO2)s1` (centres undefined), the GI50 is > 100 µM (inactive) in the assay with DU-145; > 100 µM (inactive) in the assay with SN12C; 26.9 µM (inactive) in the assay with SK-MEL-5; 42.2 µM (inactive) in the assay on PC-3; 63.2 µM (inactive) in the assay on HOP-62; > 100 µM (inactive) in the assay with OVCAR-5. Further, the GI50 in the assay on MDA-N is 40.3 µM (inactive); in the assay on RXF 393, 0.8 µM (active); with OVCAR-3, 71.4 µM (inactive); in the assay with OVCAR-8, 45.5 µM (inactive); with HCT-15 it was 33.3 µM; in the assay with BT-549, 49.7 µM (inactive). In addition, the GI50 in the assay on NCI-H23 is 34.7 µM (inactive); in the assay with TK-10, > 59.6 µM (inactive); in the assay with T47D it was > 100 µM (inactive); in the assay on HT-29 it was 61.8 µM (inactive).
